Measured values published in the NIST ThermoML archive (doi:10.1016/j.fluid.2009.08.017).
± gives the expanded uncertainty stated by the source.

Experiment: activity coefficient (dimensionless); of the first substance listed, at infinite dilution; xn = mol fraction of the nth substance listed
Conditions: 101 kPa, Liquid, Chromatography, x1 = 0

Row | SMILES | activity coefficient (298.15 K) | activity coefficient (308.15 K) | activity coefficient (318.15 K) | activity coefficient (328.15 K) | activity coefficient (338.15 K) | activity coefficient (348.15 K) | activity coefficient (358.15 K) | activity coefficient (368.15 K)
1 | Cc1ccccc1 [toluene] + CCCCCCOCn1cc[n+](C)c1.O=S(=O)([N-]S(=O)(=O)C(F)(F)F)C(F)(F)F | 1.05 ± 0.066 | 1.06 ± 0.067 | 1.07 ± 0.068 | 1.08 ± 0.068 | 1.09 ± 0.069 | 1.1 ± 0.069 | 1.1 ± 0.07 | 1.11 ± 0.07
2 | CCO [ethanol] + CCCCCCOCn1cc[n+](C)c1.O=S(=O)([N-]S(=O)(=O)C(F)(F)F)C(F)(F)F | 1.59 ± 0.11 | 1.44 ± 0.09 | 1.31 ± 0.09 | 1.2 ± 0.08 | 1.1 ± 0.07 | 1.03 ± 0.06 | 0.952 ± 0.06 | 0.891 ± 0.057
3 | C1CCCC1 [cyclopentane] + CCCCCCOCn1cc[n+](C)c1.O=S(=O)([N-]S(=O)(=O)C(F)(F)F)C(F)(F)F | 4.19 ± 0.29 | 3.99 ± 0.27 | 3.82 ± 0.26 | 3.66 ± 0.25 | 3.51 ± 0.24 | 3.38 ± 0.23 | 3.27 ± 0.22 | 3.16 ± 0.22
4 | C#CCCCCC [1-heptyne] + CCCCCCOCn1cc[n+](COCCCCCC)c1.O=S(=O)([N-]S(=O)(=O)C(F)(F)F)C(F)(F)F | 1.37 ± 0.089 | 1.38 ± 0.09 | 1.39 ± 0.09 | 1.39 ± 0.091 | 1.4 ± 0.091 | 1.4 ± 0.092 | 1.41 ± 0.092 | 1.42 ± 0.093
5 | C1CCCCC1 [cyclohexane] + CCCCCCOCn1cc[n+](COCCCCCC)c1.O=S(=O)([N-]S(=O)(=O)C(F)(F)F)C(F)(F)F | 2.32 ± 0.16 | 2.22 ± 0.15 | 2.15 ± 0.15 | 2.08 ± 0.14 | 2.01 ± 0.14 | 1.94 ± 0.13 | 1.89 ± 0.13 | 1.84 ± 0.12
6 | CO [methanol] + CCCCCCOCn1cc[n+](C)c1.O=S(=O)([N-]S(=O)(=O)C(F)(F)F)C(F)(F)F | 1.36 ± 0.09 | 1.24 ± 0.08 | 1.13 ± 0.07 | 1.04 ± 0.07 | 0.959 ± 0.06 | 0.894 ± 0.057 | 0.832 ± 0.054 | 0.775 ± 0.051
7 | Cc1ccccc1C [1,2-dimethylbenzene] + CCCCCCOCn1cc[n+](COCCCCCC)c1.O=S(=O)([N-]S(=O)(=O)C(F)(F)F)C(F)(F)F | – | – | 0.89 ± 0.057 | 0.891 ± 0.057 | 0.892 ± 0.057 | 0.894 ± 0.057 | 0.895 ± 0.057 | 0.896 ± 0.057
8 | CCc1ccccc1 [ethylbenzene] + CCCCCCOCn1cc[n+](C)c1.O=S(=O)([N-]S(=O)(=O)C(F)(F)F)C(F)(F)F | – | 1.49 ± 0.098 | 1.49 ± 0.098 | 1.49 ± 0.098 | 1.5 ± 0.098 | 1.5 ± 0.099 | 1.5 ± 0.099 | 1.5 ± 0.099
9 | C#CCCCC [1-hexyne] + CCCCCCOCn1cc[n+](COCCCCCC)c1.O=S(=O)([N-]S(=O)(=O)C(F)(F)F)C(F)(F)F | 1.16 ± 0.074 | 1.17 ± 0.075 | 1.17 ± 0.075 | 1.18 ± 0.075 | 1.18 ± 0.076 | 1.19 ± 0.076 | 1.19 ± 0.076 | 1.19 ± 0.076
10 | Cc1cccc(C)c1 [1,3-dimethylbenzene] + CCCCCCOCn1cc[n+](COCCCCCC)c1.O=S(=O)([N-]S(=O)(=O)C(F)(F)F)C(F)(F)F | – | – | 0.944 ± 0.06 | 0.946 ± 0.06 | 0.948 ± 0.06 | 0.951 ± 0.06 | 0.953 ± 0.06 | 0.955 ± 0.06
11 | C1CCCCCC1 [cycloheptane] + CCCCCCOCn1cc[n+](COCCCCCC)c1.O=S(=O)([N-]S(=O)(=O)C(F)(F)F)C(F)(F)F | 2.71 ± 0.18 | 2.6 ± 0.18 | 2.5 ± 0.17 | 2.41 ± 0.16 | 2.33 ± 0.16 | 2.25 ± 0.15 | 2.19 ± 0.15 | 2.12 ± 0.14
12 | CCCCCCC [heptane] + CCCCCCOCn1cc[n+](COCCCCCC)c1.O=S(=O)([N-]S(=O)(=O)C(F)(F)F)C(F)(F)F | 3.94 ± 0.27 | 3.81 ± 0.26 | 3.68 ± 0.25 | 3.57 ± 0.24 | 3.46 ± 0.24 | 3.36 ± 0.23 | 3.27 ± 0.22 | 3.19 ± 0.22
13 | CCCCO [butan-1-ol] + CCCCCCOCn1cc[n+](C)c1.O=S(=O)([N-]S(=O)(=O)C(F)(F)F)C(F)(F)F | – | – | 1.74 ± 0.12 | 1.58 ± 0.1 | 1.45 ± 0.1 | 1.34 ± 0.09 | 1.24 ± 0.08 | 1.15 ± 0.07
